Experimental data published in patent US11179382B2, “Methods of reversing normal aging process and extending lifespan” (MyMD Pharmaceuticals (Florida), Inc., priority 2015, dated 2021).
“And” between values parts separate entries of the source, which are not always exact repeats. Identical values can stand only once. “Also recorded” adds a separate entry of the source.

Assays:
surgical incisions = test: Topical administration for wound healing; format: in vivo, human; settings: e.g., avoid scarring around surgical incisions
From the text: In another aspect, a method of treating a wound comprises administering to an individual in need thereof a pharmaceutical composition containing a therapeutically effective amount of isomyosmine or a pharmaceutically acceptable salt thereof.

[1] = test system: stage-four cancer patient diagnosed with autoimmune amyloidosis; test: Treatment of a stage-four cancer patient with autoimmune amyloidosis; immunoglobulin light chain Kappa/Lambda detection in blood; format: in vivo, human; settings: for Lambda Light Chains / Free Light Chains Ratio / Kappa Light Chains: 250 mg daily; for Lambda Light Chains: initial 6.5, standard range 5.7-26.3; for Free Light Chains Ratio: initial 75.38, standard range 0.26-1.65; for Kappa Light Chains: initial 490.0, standard range 3.3-19.4
Description: This example illustrates treating a stage-four cancer patient who had been diagnosed with autoimmune amyloidosis. At the time treatment began, the individual was bedridden under hospice care and told they had only a few days to live. The individual was administered a daily dose of 250 mg isomyosmine.
The patient's blood was tested using conventional immunoglobulin light chain Kappa/Lambda detection. The immunoglobulin kappa and lambda (Ig κ/λ) in situ hybridization (ISH) system is designed for the detection of human kappa and lambda immunoglobulin light chain messenger RNA (mRNA) in tissue sections and blood and bone marrow smears. The system uses biotin-labeled oligonucleotide probes. The probe-mRNA duplex is indirectly detected using an enzyme-conjugated antibody targeting the biotin conjugate. For color development, a chromogenic substrate is added. Enzymatic reaction of the chromogenic substrate leads to the formation of a color precipitate that is visualized by light microscopy.

MAO-B = biological target: T1, MAO-B (Homo sapiens, UniProt P27338); test: MAO-Glo luminescent assay, MAO-B inhibition; format: biochemical; settings: compared among isomyosmine, myosmine, anatabine, anabasine, nornicotine
T1 construct: purchased
T1 sequence (P27338 1-520): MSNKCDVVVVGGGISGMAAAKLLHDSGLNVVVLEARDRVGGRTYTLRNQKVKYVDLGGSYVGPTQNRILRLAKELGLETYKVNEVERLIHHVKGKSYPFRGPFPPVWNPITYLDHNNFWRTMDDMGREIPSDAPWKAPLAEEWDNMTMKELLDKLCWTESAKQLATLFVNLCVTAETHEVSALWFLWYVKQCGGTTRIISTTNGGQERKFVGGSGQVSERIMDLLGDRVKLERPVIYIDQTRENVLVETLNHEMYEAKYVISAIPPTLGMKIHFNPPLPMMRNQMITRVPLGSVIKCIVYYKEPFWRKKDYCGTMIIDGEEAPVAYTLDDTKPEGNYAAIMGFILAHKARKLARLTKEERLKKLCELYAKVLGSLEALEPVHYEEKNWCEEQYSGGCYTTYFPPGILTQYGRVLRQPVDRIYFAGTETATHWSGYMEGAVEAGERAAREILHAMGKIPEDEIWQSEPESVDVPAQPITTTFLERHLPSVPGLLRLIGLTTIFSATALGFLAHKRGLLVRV
From the text: (§1) This example describes experiments for determining monoamine oxidase (MAO) inhibition for isomyosmine and other alkaloids. MAOs are enzymes located on the outer membrane of mitochondria and are involved in the catabolism of monoamine neurotransmitters. There are two well-characterized isoenzymes: MAO-A, which predominantly catabolizes serotonin and norepinephrine, and MAO-B, which preferentially catabolizes benzylamine and phenylethylamine. Dopamine and tyramine are metabolized by both isoforms.
(§2) To detect the activity of MAO, a luminescent method (MAO-Glo Assay kit, from Promega, Cat #V1401) was used. In this method, a MAO substrate (a derivative of beetle luciferin provided in the kit) is mixed with the compound to be tested (in this case, myosmine and control compounds). Then, the MAO enzymes (either A or B, purchased separately) are added to the mixture and incubated with the reaction for 1 hour at room temperature. The MAO enzymes, if not inhibited by the test compound, will convert the substrate into methyl ester luciferin. Finally, a luciferin detection reagent (provided by the kit) is added (20 minutes at room temperature) to stop the MAO reaction and convert methyl ester luciferin into D-luciferin. […] The luminescent signal is measured and recorded using a luminometer. […]

[2] = test system: individuals experiencing high blood pressure; test: Treatment of individuals experiencing high blood pressure; format: in vivo, human; settings: 100 mg per day
Description: (§3) This example illustrates administering isomyosmine to treat high blood pressure. Twelve individuals experiencing high blood pressure were each administered isomyosmine at dose of 100 mg per day. […] The blood pressure of one of the individuals was measured to be 145/86 mmHg without isomyosmine in the bloodstream and was measured to be 109/59 mmHg while being treated with isomyosmine. Another of the individuals was being treated for type II diabetes at the beginning of the treatment.

MAO-A = biological target: T2, MAO-A (Homo sapiens, UniProt P21397); test: MAO-Glo luminescent assay, MAO-A inhibition; format: biochemical; settings: compared among isomyosmine, myosmine, anatabine, anabasine, nornicotine; clorgyline positive control
T2 construct: purchased
T2 sequence (P21397 1-527): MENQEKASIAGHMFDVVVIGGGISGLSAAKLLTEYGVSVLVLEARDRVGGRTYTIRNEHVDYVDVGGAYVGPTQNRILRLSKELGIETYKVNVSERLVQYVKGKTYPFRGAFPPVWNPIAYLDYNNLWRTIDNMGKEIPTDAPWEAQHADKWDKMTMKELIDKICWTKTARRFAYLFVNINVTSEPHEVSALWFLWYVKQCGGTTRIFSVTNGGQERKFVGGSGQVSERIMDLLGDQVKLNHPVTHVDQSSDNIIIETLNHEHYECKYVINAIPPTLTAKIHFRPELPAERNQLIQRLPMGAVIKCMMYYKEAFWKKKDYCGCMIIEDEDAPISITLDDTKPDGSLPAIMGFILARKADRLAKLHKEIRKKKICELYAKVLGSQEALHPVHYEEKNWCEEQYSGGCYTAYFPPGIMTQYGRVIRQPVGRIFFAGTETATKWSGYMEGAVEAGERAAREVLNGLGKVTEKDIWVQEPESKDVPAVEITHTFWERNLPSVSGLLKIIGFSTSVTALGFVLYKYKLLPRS
From the text: as §1, §2

[3] = test system: herpes labialis (herpes simplex); test: Treatment of herpes labialis (cold sores) in an individual; format: in vivo, human; settings: 100 mg dose upon first feeling the onset of a cold sore
Description: This example illustrates administering isomyosmine to treat herpes labialis (cold sores), a type of herpes simplex occurring on the lip. An individual who experiences periodic outbreaks of herpes labialis was administered a 100 mg dose of isomyosmine upon first feeling the onset of a cold sore.

[4] = test system: individual being treated for type II diabetes; test: Individual with type II diabetes treated with isomyosmine; format: in vivo, human; settings: one individual, 100 mg per day, following three months of treatment; taken off existing diabetes medication
Description: as §3

[5] = test system: individuals (peripheral capillary oxygen saturation); test: Blood oxygen saturation (SpO2) by pulse oximetry in individuals; format: in vivo, human; settings: one hour after a single dose (50-100 mg), seven individuals
From the text: This example illustrates the effect of isomyosmine on normal blood oxygen saturation levels (SpO2). SpO2 refers to peripheral capillary oxygen saturation, an estimate of the amount of oxygen in the blood. More specifically, it is the percentage of oxygenated hemoglobin (hemoglobin containing oxygen) compared to the total amount of hemoglobin in the blood (oxygenated and non-oxygenated hemoglobin). SpO2 can be measured by pulse oximetry, an indirect, non-invasive method. It works by emitting and then absorbing a light wave passing through blood vessels (or capillaries) in the fingertip. A variation of the light wave passing through the finger will give the value of the SpO2 measurement because the degree of oxygen saturation causes variations in the blood's color.

C1=NC(c2cccnc2)CC1 (stereo not shown) [isomyosmine, 3-(3,4-dihydro-2H-pyrrol-2-yl)-pyridine]
wound healing (result in words) (surgical incisions): dramatically improve healing
Lambda Light Chains ([1]; 3 weeks): 10.9 mg/L
Free Light Chains Ratio ([1]; 3 weeks): 55.23
Kappa Light Chains ([1]; 3 weeks): 602.0 mg/L
Lambda Light Chains ([1]; 9 weeks): 9.2 mg/L
Free Light Chains Ratio ([1]; 9 weeks): 42.83
Kappa Light Chains ([1]; 9 weeks): 394.0 mg/L
Lambda Light Chains ([1]; 12 weeks): 7.1 mg/L
Free Light Chains Ratio ([1]; 12 weeks): 29.58
Kappa Light Chains ([1]; 12 weeks): 210.0 mg/L
Lambda Light Chains ([1]; 14 weeks): 3.0 mg/L
Free Light Chains Ratio ([1]; 14 weeks): 64.33
Kappa Light Chains ([1]; 14 weeks): 193.0 mg/L
Lambda Light Chains ([1]; 17 weeks): 3.6 mg/L
Free Light Chains Ratio ([1]; 17 weeks): 28.89
Kappa Light Chains ([1]; 17 weeks): 104.0 mg/L
individual's symptoms ([1]; daily dose of 250 mg, within two weeks of treatment, able to get out of bed and walk around): remarkably improved
inhibiting the activity of MAO-B (result in words, FIG. 4) (MAO-B): most potent among the five alkaloids tested; also recorded: potent inhibitor
blood pressure while being treated ([2]; one individual, 145/86 mmHg without isomyosmine in the bloodstream): 109/59
change in blood pressure during treatment ([2]; twelve individuals): reduction in blood pressure
inhibiting the enzymatic activity of MAO-A (result in words, FIG. 3) (MAO-A): most potent of the five; also recorded: potent inhibitor
outbreak of cold sore [3]: effective to prevent the outbreak of the cold sore
symptoms of diabetes [4]: no symptoms of diabetes
blood oxygenation (result in words) [5]: significant increase in blood oxygenation
Dosed SpO2 ([5]; base SpO2 94.0-97.0): 98.0 (5×) and 99.0 (2×)
